Source: publication PMC12124432, “Antimicrobial Peptide‐Peptoid Macrocycles from the Polymyxin B2 Chemical Space” (Angewandte Chemie (International Ed. in English), 2025)
≈ marks a conversion by molar mass, not a printed value. Bridge positions count the residues as written; N and C are the ends. Square brackets hold non-standard residues; d marks the D form. Peptide text beside a SMILES is read from it. * marks the point of attachment. N(3-phenylpropyl)Gly = O=C(O)CNCCCc1ccccc1; Gly(NCH2CH2Ph) = O=C(O)CNCCc1ccccc1; Gly(N-2-aminoethyl) = NCCNCC(=O)O; Gly(N(CH2)3NH2) = NCCCNCC(=O)O; Gly(N-cPent) = O=C(O)CNC1CCCC1; Heptanoyl = CCCCCCC(=O)*; Nphe = O=C(O)CNCc1ccccc1; Octanoyl = CCCCCCCC(=O)*; Dab = NCC[C@H](N)C(=O)O; NPrGly = CCCNCC(=O)O

Columns and labels:
E. coli W3110 = type: cell-based, Escherichia coli; conditions: for Effect of salt on antibacterial activity against E. coli: NaCl 0-300 mM in 12.5% Mueller-Hinton broth at pH 8.5; for MIC on E. coli, 0 mM NaCl / MIC on E. coli, 100 mM NaCl / MIC on E. coli, 200 mM NaCl / MIC on E. coli, 300 mM NaCl: W3110, pH 8.5
Method: (§1) Minimal Inhibitory Concentration (MIC)
(§2) Antimicrobial activity was assayed for all the peptide-peptoids against P. aeruginosa PAO1, K. pneumoniae NCTC418, E. coli W3110, A. baumannii ATCC 19606, methicillin-resistant S. aureus COL (MRSA) and for selected peptides on P. aeruginosa PA14, as well as the clinical isolates ZEM-1A and ZEM9A, K. pneumoniae OXA-48, Enterobacter cloacae, Stenotrophomonas maltophilia and Staphylococus epidermidis. To determine the Minimal Inhibitory Concentration (MIC), Broth Microdilution method was used. A colony of bacteria was picked and grown in LB medium overnight at 37 °C. The next day, the culture was then regrown in LB medium to log phase (OD600 = 0.6 to 0.8), which lasted approximately 4 hours, and diluted to an OD600 of 0.022 in the desired medium (full MH or 12.5% MH).
(§3) The compounds were prepared as stock solutions of 2 mg/mL in sterilized MilliQ deionized water and then diluted in the desired media (full MH or 12.5% MH) to reach the first concentration tested (32 μg/mL). The compounds were added to the first well of a 96-well sterile, round bottom microtiter plates in polystyrene (TPP®, untreated) and diluted serially by ½ in the desired media (full MH or 12.5% MH), to a final volume of 150 µL/well. To each well was finally added 4 µL of the diluted bacterial suspension (see above), corresponding to approximately 5×10^5 CFU. For each test, two columns of the plate were kept for sterility control (medium only), growth control (medium with bacterial inoculum, no compound). The positive control, Polymyxin B (starting with a concentration of 16 µg/mL) in MH medium with bacterial inoculums, was introduced in the two first lines of the plate. The plates were incubated at 37 °C for ca. 18 hours under static conditions. 15 µL of 3-(4,5-dimethylthiazol-2-yl)-2,5-diphenyltetrazolium bromide (MTT)[7] (1 mg/mL in sterilized MilliQ deionized water) were added to each well and the plates were incubated for 20-30 minutes at room temperature. The […]
(§4) minimal inhibitory concentration (MIC) was defined as the lowest concentration of the compound that inhibits the visible growth of the tested bacteria (yellow) with the unaided eye.
(§5) Minimal Hemolytic Concentration (MHC) […]
(§6) 11. Minimal inhibitory in presence of salt
The same procedure as for the antibacterial activity measurements by minimal inhibitory concentration assay (MIC) was applied. The media, 12.5% Mueller-Hinton broth was this time supplemented with different salt concentrations (0, 100, 200 300 mM NaCl). […]
(§7) All data, in μg/mL, measured against P. aeruginosa PAO1, with or without addition of salt (NaCl). The values were measured in dilute medium (12.5% MH) and at slightly basic pH (pH = 8.5), after incubation for 16-20 h at 37 °C. Values represent two different duplicate MIC determinations.

P. aeruginosa PAO1 = type: cell-based, Pseudomonas aeruginosa; conditions: for Effect of salt on antibacterial activity against P. aeruginosa: NaCl 0-300 mM in 12.5% Mueller-Hinton broth at pH 8.5; for MIC on P. aeruginosa, 0 mM NaCl / MIC on P. aeruginosa, 100 mM NaCl / MIC on P. aeruginosa, 200 mM NaCl / MIC on P. aeruginosa, 300 mM NaCl: PAO1, pH 8.5
Method: as §1, §2, §3, §4, §5, §6
The same procedure as for the antibacterial activity measurements by minimal inhibitory concentration assay (MIC) was applied. The media, 12.5% Mueller-Hinton broth was this time supplemented with different salt concentrations (0, 100, 200 300 mM NaCl). The MIC activities were then determined against Pseudomonas aeruginosa PAO1 and Escherichia coli […]
Table S6. Minimal inhibitory concentration (MIC) on P. aeruginosa PAO1 as function of salt […]
as §7

[1] = Dansyl-polymyxin (DsPMB) displacement assay; type: binding, Pseudomonas aeruginosa; conditions: 37 °C, 2.5 µM DsPMB, LPS 3 μg/mL, emission 485 nm; mean ± SD, n = 3
Method: 14. Dansyl-Polymyxin (DsPMB) Displacement Assay
Saturation determination. Dansyl-polymyxin (DsPMB) in water (1.5 mg/mL) and lyophilized lipopolysaccharides from P. aeruginosa were obtained from Merck. LPS were prepared as a 1 mg/mL stock solution in mQ water and stored at 4 °C. The fluorescence saturation of DsPMB with LPS was first determined, by titration (0.25 μM increments, up to 5 μM) of the DsPMB into a 3 μg/mL of LPS (10 mM Tris, 10 mM NaCl buffer, pH 7.4), at 37 °C. The fluorescence was recorded with a Jasco spectrofluorometer FP-8300, with the excitation at λex = 340 nm (5 nm slit width) and recorded from 420 to 650 nm. The fluorescence was recorded two minutes after each addition. Saturation was graphically determined, at a concentration of D sPMB ≈ 2.5 μM (λem = 485 nm). Each measurement was determined in triplicates.
Displacement assay. The displacement effect of the various peptides was determined by measuring the reduction of fluorescence intensity, at 37 °C. Initially, DsPMB (2.5 μM) was mixed with LPS (3 μg/mL) and let it react for 15 minutes before recording the fluorescence […]
intensity (at λem = 485 nm and λex = 340 nm). Then, the peptide was titrated (1 μM increments, up to 10 μM) into the DsPMB/LPS mixture, and the fluorescence was recorded two minutes after the compound addition. The decrease in fluorescence was interpreted as the displacement of DsPMB from the LPS due to competitive binding by the peptide.[12,13] Specific Fluorescence Enhancement
Figure S8. Fluorescence emission of dansyl-polymyxin (DsPMB) in presence of lipopolysaccharide (LPS) extracted from P. aeruginosa (3 µg/mL) in TRIS/NaCl buffer (10 mM, pH 7.4). The fluorophore was excited at 340 nm (5 nm slit width) and recorded from 420 to 650 nm. The data represent mean value from three measurement. Specific fluorescence represents the emission of DsPMB with the non-specific fluorescence (no LPS) deduced.

SMILES	Effect of salt on antibacterial activity against E. coli (E. coli W3110)	MIC on E. coli, 0 mM NaCl (E. coli W3110) [µg/mL]	MIC on E. coli, 100 mM NaCl (E. coli W3110) [µg/mL]	MIC on E. coli, 200 mM NaCl (E. coli W3110) [µg/mL]	MIC on E. coli, 300 mM NaCl (E. coli W3110) [µg/mL]	Effect of salt on antibacterial activity against P. aeruginosa (P. aeruginosa PAO1)	MIC on P. aeruginosa, 0 mM NaCl (P. aeruginosa PAO1) [µg/mL]	MIC on P. aeruginosa, 100 mM NaCl (P. aeruginosa PAO1) [µg/mL]	MIC on P. aeruginosa, 200 mM NaCl (P. aeruginosa PAO1) [µg/mL]	MIC on P. aeruginosa, 300 mM NaCl (P. aeruginosa PAO1) [µg/mL]	Binding to lipopolysaccharide (dansyl-PMB fluorescence displacement) [1]
CCCCCCCC(=O)N(CCc1ccccc1)CC(=O)N[C@@H](CCCCN)C(=O)N[C@@H](CC(N)=O)C(=O)N[C@H]1CCNC(=O)[C@H](CCCCN)NC(=O)CN(CCCN)C(=O)[C@H](CCCCN)NC(=O)CN(CCC)C(=O)[C@H](CCCCN)NC1=O [EB12] (Octanoyl-[Gly(NCH2CH2Ph)]KN[Dab]K[NPrGly]K[Gly(N(CH2)3NH2)]K; lactam 4-C)	inhibited by high salt concentrations	1 (≈ 0.815 µM)	2 (≈ 1.63 µM)	4 (≈ 3.26 µM)	16 (≈ 13 µM)	inhibited by high salt concentrations	2 to 4	32 (≈ 26.1 µM)	> 64	> 64	to a similar extent as PMB2 itself
CCCCCCC(=O)N[C@H](C(=O)N(CCN)CC(=O)N(CCCc1ccccc1)CC(=O)N[C@H]1CCNC(=O)[C@H](CCCCN)NC(=O)CN(CCCN)C(=O)[C@H](CCCCN)NC(=O)CNC(=O)[C@H](CCCCN)NC1=O)C(C)C [EB13] (Heptanoyl-V[Gly(N-2-aminoethyl)][N(3-phenylpropyl)Gly][Dab]KGK[Gly(N(CH2)3NH2)]K; lactam 4-C)	inhibited by high salt concentrations	0.5 (≈ 0.438 µM)	16 (≈ 14 µM)	> 64	> 64	inhibited by high salt concentrations	4 (≈ 3.5 µM)	> 64	> 64	> 64	to a similar extent as PMB2 itself
CCCCCCCC(=O)N[C@@H](CCCCN)C(=O)N(CC(=O)N[C@@H](CCCCN)C(=O)N[C@H]1CCNC(=O)[C@H](CCCCN)NC(=O)CN(C2CCCC2)C(=O)CN(CCN)C(=O)[C@H](CCCCN)NC(=O)[C@H](CC(N)=O)NC1=O)Cc1ccccc1 [EB21] (Octanoyl-K[Nphe]K[Dab]NK[Gly(N-2-aminoethyl)][Gly(N-cPent)]K; lactam 4-C)	inhibited by high salt concentrations	1 (≈ 0.816 µM)	16 (≈ 13.1 µM)	> 64	> 64	inhibited by high salt concentrations	4 (≈ 3.26 µM)	> 64	> 64	> 64	to a similar extent as PMB2 itself
